Test results as given in US20170202838A1, “IMMUNOMODULATOR” (TAIHO PHARMACEUTICAL CO., LTD., priority 2015, published 2017).

Key:
Type in all cases: cell-based
[1] = tested on: human peripheral blood mononuclear cells; assay: Induction of IL-2 production of PHA-M-stimulated human peripheral blood mononuclear cells (Example 2); conditions: PHA-M 5 μg/ml, 3 days, ELISA (FIG. 3)
Method: Human peripheral blood mononuclear cells were introduced into a human complete medium (i.e., RPMI-1640 supplemented with 10% heat-inactivated FBS, 100 U/ml penicillin, and 100 μg/ml streptomycin) to prepare a cell suspension (1×10^6 cells/ml). Phytohemagglutinin M (PHA-M) was added thereto to the final concentration of 5 μg/ml, and Compound (I) or an EGFR tyrosine kinase inhibitor (AZD9291) was further added thereto to each final concentration. This culture solution was seeded in a 96-well plate at 200 μl/well and then cultured in an incubator at 37° C. in the presence of 5% CO2 for 3 days. The culture supernatant was recovered, and the concentration of IL-2 therein was measured via ELISA using the anti-hIL-2 antibody.

[2] = tested on: human peripheral blood mononuclear cells; assay: Induction of cytokine production in human peripheral blood mononuclear cells, Bio-Plex Pro cytokine assay (Example 7); conditions: 2 days culture, no stimulant (FIG. 9)
Method: Human peripheral blood mononuclear cells were introduced into a human complete medium (i.e., RPMI-1640 supplemented with 10% heat-inactivated FBS, 100 U/ml penicillin, and 100 μg/ml streptomycin) to prepare a cell suspension (1×10^5 cells/ml). Compound (I), the EGFR tyrosine kinase inhibitor (i.e., AZD9291 or Erlotinib), or a cytokine-inducing positive control (i.e., Imiquimod) was added to the cell suspension. A control group to which the EGFR tyrosine kinase inhibitor and others were not added was also prepared (i.e., the non-treatment group). The culture solution was cultured in an incubator at 37° C. in the presence of 5% CO2 for 2 days. The culture supernatant was recovered, and various types of cytokines were inspected with the use of the Bio-Plex Pro human cytokine assay kit.

[3] = tested on: mouse spleen cells; assay: Excitation of T cell growth, CFSE flow cytometry of CD4- and CD8-positive spleen cells (Example 4); conditions: 0.1 μM, 3 days culture of stimulated spleen cells
Method: The mouse spleen was extracted, grinded with glass slides with frosted areas, and then subjected to hemolysis, so as to obtain spleen cells. The spleen cells were suspended in 5 ml of a staining buffer (0.5% BSA, 2 mM EDTA, PBS(-)), and the cells were stained with 5 μM CFSE (5-carboxyfluorescein succinimidyl ester). Thereafter, the stained cells were washed with an ice-cooled complete medium (RPMI-1640). The CFSE-stained spleen cells were introduced into a complete medium (i.e., RPMI-1640 supplemented with 10% heat-inactivated FBS, 100 U/ml penicillin, 100 μg/ml streptomycin, and 55 μM 2-mercaptoethanol) to prepare a cell suspension (1×10^6 cells/ml), the anti-CD3 antibody and the anti-CD28 antibody were added at 1 μg/ml and 1 μg/ml, respectively, and Compound (I) adjusted to various concentrations or the EGFR tyrosine kinase inhibitor (i.e., AZD09291, Erlotinib, Co1686 (Rociletinib), Ibrutinib, Sunitinib, or Dasatinib) was added at 0.1 μM. […] These culture solutions were seeded in a 96-well plate at 200 μl/well and then cultured in an incubator at 37° C. in the presence of 5% CO2 for 3 days. The cells were recovered and stained with the anti-CD4 antibody and the anti-CD8 antibody. The amounts of CFSE in CD4- and CD8-positive cells were analyzed via flow cytometry.
Once CFSE is incorporated into a cell, the amount thereof is kept constant in the cell. Since the amount of CFSE per cell decreases by half upon cell division, according to flow cytometric analysis, the intensity of CFSE staining is attenuated and is shifted toward left (i.e., lower level) in the chart, as cell division proceeds. […] In the case of the samples to which other types of EGFR tyrosine kinase inhibitors had been added, in contrast, no such activity for enhancing the cell growth was observed.

SMILES | concentration of IL-2 produced by human peripheral blood mononuclear cells in the culture supernatant [1] | cytokine concentrations relative to the non-treatment group [2] | cell death [3]
C=CC(=O)Nc1cc(Nc2nccc(-c3cn(C)c4ccccc34)n2)c(OC)cc1N(C)CCN(C)C [AZD9291, reference compound] | substantially no activity for inducing IL-2 production | such induction was not observed | –
Cc1nc(Nc2ncc(C(=O)Nc3c(C)cccc3Cl)s2)cc(N2CCN(CCO)CC2)n1 [Dasatinib, reference compound] | – | – | cell death was induced
C#Cc1cccc(Nc2ncnc3cc(OCCOC)c(OCCOC)cc23)c1 [Erlotinib] | – | such induction was not observed | –
